Measurements as given in patent US20240173289A1, “USE OF OXYMETHYL-MODIFIED DERIVATIVE OF QUERCETIN IN PREPARATION OF DRUG FOR INHIBITING TUMOR CELL PROLIFERATION” (ZHEJIANG UNIVERSITY, priority 2021, published 2024).

Columns and labels:
Type in all cases: cell-based
[1] = system: human normal gastric cell line GES; assay: in vitro proliferation inhibition on normal cells (CCK-8); conditions: 48 h, read-out: half-inhibitory concentration
From the text: (§1) Osteosarcoma cell line 143B, HOS, and U2, liver cancer cell line HepG2, breast cancer cell line MDA-MB-231 and T47D, gastric cancer cell line AGS, BGC-823, and SGC-7901, cervical cancer cells Hela, lung cancer cells A549, intestinal cancer cells Caco2, mouse glioma cells BV-2, human prostate cancer cells PC3, human thyroid cancer cell line BCPAP, human normal liver cell line L02, human normal gastric cell line GES, human umbilical vein epithelial cells HUVEC, and human embryonic lung fibroblasts WI-38 were cultured in a DMEM medium containing 10% fetal bovine serum and 1×HEPES in a humid incubator (37° C., 5% CO2). The cells were passaged with trypsin-EDTA in logarithmic phase. Certain density of cells (AGS, T47D, Caco2, BCPAP, GES, HUVEC 1×10^5 cells per well; HepG2, MDA-MB-231, BGC-823, A549, PC3, L02 8×10^4 cells per well; 143B, HOS, U2, SGC-7901, Hela, BV-2, 5×10^4 cells per well; WI-38, 3×10^5 cells per well) were inoculated in a 96-well plate, and cultured for 24 h before treatment. After replacing a fresh medium, 12.5 mg/L to 400 mg/L, of quercetin 3,3′-dimethyl ether dissolved with DMSO was added into a medium (a final volume ratio was 0.1%, and the DMSO was used as a […]). After incubation for 48 h, a complete medium was replaced with a serum-free medium containing 10% CCK-8 reagent. The absorbance at 450 nm and 620 nm was measured separately after the cells were incubated for 1 h. Each experiment was repeated three times independently.

[2] = system: human umbilical vein epithelial cells HUVEC; assay: as above; conditions: 48 h, read-out: half-inhibitory concentration
From the text: as §1

[3] = system: human normal liver cell line L02; assay: as above; conditions: 48 h, read-out: half-inhibitory concentration
From the text: as §1

[4] = system: human embryonic lung fibroblasts WI-38; assay: as above; conditions: 48 h, read-out: half-inhibitory concentration
From the text: as §1

HepG2 cells = assay: scratch test, metastasis capacity; conditions: 1 mg/L, after 1 d (24 h) of incubation
Procedure: HepG2 cells with a cell density of 5×10^5/mL were plated on a 6-well plate (1 mL per well), added to a DMEM medium containing 10% fetal calf serum, and cultured overnight to form a monolayer of cells. A horizontal scratch was scratched on the monolayer of cells with a pipette tip of 200 μL, washed with PBS 3 times, added into a DMEM medium containing 10% fetal bovine serum, and then added with 1 mg/L of a quercetin 3,3′-dimethyl ether solution, while DMSO was used as a solvent control, and then incubated for 24 h.

osteosarcoma cells U2 = assay: scratch closure test; conditions: 10 mg/L, 24 h
Procedure: (§2) Cells with a certain density (6×10^5 cells per mL for AGS, T47D, Caco2, BCPAP, GES, HUVEC; 5×10^5 cells per mL for HepG2, MDA-MB-231, BGC-823, A549, PC3, L02; 3×10^5 cells per mL for 143B, HOS, U2, SGC-7901, Hela, BV-2; and 1.8×10^6 cells per mL for WI-38) were spread on a 6-well plate (1 mL per well), added with a DMEM medium containing 10% fetal calf serum, and cultured overnight to form a monolayer of cells. A horizontal scratch was scratched on the monolayer of cells with a pipette tip of 200 μL, washed with PBS 3 times, added into a DMEM medium containing 10% fetal bovine serum, and then added with corresponding dosages of a quercetin 3,3′-dimethyl ether solution (the dosage of osteosarcoma cells was 143B: 4 mg/L, HOS: 4 mg/L, U2: 10 mg/L; the dosage of breast cancer cells was MDA-MB-231: 2 mg/L, T47D: 3 mg/L; the dosage of gastric cancer cells was SGC7901: 6 mg/L, BGC823: 5 mg/L, AGS: 3 mg/L; the dosage of cervical cancer Hela cells was 2 mg/L; the dosage of lung cancer cell A549 was 3 mg/L; the dosage of intestinal cancer cells Caco2 was 4 mg/L; the dosage of mouse glioma BV2 was 4 mg/L; the dosage of human prostate cancer cells PC3 was 6 mg/L; and the dosage of human thyroid cancer cells BCPAP was 2 mg/L), while DMSO was used as a solvent control, and then incubated for 24 h. A scratch width and a measurement width were determined under a microscope, and a scratch closure ratio was calculated as follows: scratch closure ratio=(scratch width−measurement width)/scratch width×100%. Scratch inhibition ratio=(scratch closure ratio of control group−scratch closure ratio of treatment group)/scratch closure ratio of control group×100%.

osteosarcoma cells 143B = assay: scratch closure test; conditions: Homo sapiens, 4 mg/L, 24 h, versus control group, read-out: inhibition rate of scratch closure
Procedure: as §2

[5] = system: human prostate cancer cells PC3; assay: scratch closure test; conditions: 6 mg/L, 24 h
Procedure: as §2

[6] = system: cervical cancer Hela cells; assay: scratch closure test; conditions: 2 mg/L, 24 h
Procedure: as §2

[7] = system: human thyroid cancer cells BCPAP; assay: scratch closure test; conditions: 2 mg/L, 24 h
Procedure: as §2

[8] = system: breast cancer cells MDA-MB-231; assay: scratch closure test; conditions: 2 mg/L, 24 h
Procedure: as §2

[9] = system: intestinal cancer cells Caco2; assay: scratch closure test; conditions: 24 h
Procedure: as §2

[10] = system: gastric cancer cells BGC-823; assay: scratch closure test; conditions: Homo sapiens, BGC823, 5 mg/L, 24 h, versus control group, read-out: inhibition rate of scratch closure
Procedure: as §2

[11] = system: gastric cancer cells SGC-7901; assay: scratch closure test; conditions: 24 h
Procedure: as §2

gastric cancer cells AGS = assay: scratch closure test; conditions: 3 mg/L, 24 h
Procedure: as §2

lung cancer cell A549 = assay: scratch closure test; conditions: Homo sapiens, 3 mg/L, 24 h, versus control group, read-out: inhibition rate of scratch closure
Procedure: as §2

osteosarcoma cells HOS = assay: scratch closure test; conditions: 4 mg/L, 24 h, versus control group, read-out: inhibition rate of scratch closure
Procedure: as §2

breast cancer cells T47D = assay: scratch closure test; conditions: 3 mg/L, 24 h
Procedure: as §2

[12] = versus control group, read-out: inhibition rate of scratch closure
[13] = Homo sapiens, versus control group, read-out: inhibition rate of scratch closure

With `COc1cc(-c2oc3cc(O)cc(O)c3c(=O)c2OC)ccc1O` [Quercetin 3,3′-dimethyl ether, quercetin 3,3′-dimethyl ether] the IC50 [1] was > 100 µg/mL, the IC50 [2] was > 100 µg/mL and the IC50 [3] was > 100 µg/mL. The IC50 [4] was > 100 µg/mL, the “intercellular space (scratch) versus control group” value (HepG2 cells) was “significantly higher” and the “Treatment scratch closed %” value (osteosarcoma cells U2) was 27.67 ± 6.81 %. For the same compound, the inhibition at 10 µg/mL (osteosarcoma cells U2; [12]) was 70.5%, the inhibition at 4 µg/mL (osteosarcoma cells 143B) was 54.3% and the “Treatment scratch closed %” value [5] was 24.76 ± 5.55 %. The inhibition at 6 µg/mL [5, 13] was 70.9%, the “Treatment scratch closed %” value [6] was 37.42 ± 1.62 % and the inhibition at 2 µg/mL [6, 13] was 54%. The “Treatment scratch closed %” value [7] was 30.31 ± 5.21 %, the inhibition at 2 µg/mL [7, 13] was 64.7% and the “Treatment scratch closed %” value [8] was 16.72 ± 3.87 %. The inhibition at 2 µg/mL [8, 13] was 82%, the “Treatment scratch closed %” value ([9]; 4 mg/L) was 28.37 ± 10.21 % and the inhibition at 4 µg/mL ([9]; Homo sapiens, Caco-2, 4 mg/L, versus control group, read-out: inhibition rate of scratch closure) was 66.6%. For the same compound, the inhibition at 5 µg/mL [10] was 73.7%, the “Treatment scratch closed %” value ([11]; 6 mg/L) was 25.05 ± 10.1 % and the inhibition at 6 µg/mL ([11]; Homo sapiens, SGC7901, 6 mg/L, versus control group, read-out: inhibition rate of scratch closure) was 72%. The “Treatment scratch closed %” value (gastric cancer cells AGS) was 31.67 ± 3.39 %, the inhibition at 3 µg/mL (gastric cancer cells AGS; [12]) was 60.9% and the inhibition at 3 µg/mL (lung cancer cell A549) was 69.6%. For the same compound, the inhibition at 4 µg/mL (osteosarcoma cells HOS) was 57.6%, the “Treatment scratch closed %” value (breast cancer cells T47D) was 31.83 ± 6.01 % and the inhibition at 3 µg/mL (breast cancer cells T47D; [13]) was 64.1%.
